Biological target: T1, Adenosine deaminase (Bos taurus, UniProt P56658)
T1 sequence (P56658 whole entry): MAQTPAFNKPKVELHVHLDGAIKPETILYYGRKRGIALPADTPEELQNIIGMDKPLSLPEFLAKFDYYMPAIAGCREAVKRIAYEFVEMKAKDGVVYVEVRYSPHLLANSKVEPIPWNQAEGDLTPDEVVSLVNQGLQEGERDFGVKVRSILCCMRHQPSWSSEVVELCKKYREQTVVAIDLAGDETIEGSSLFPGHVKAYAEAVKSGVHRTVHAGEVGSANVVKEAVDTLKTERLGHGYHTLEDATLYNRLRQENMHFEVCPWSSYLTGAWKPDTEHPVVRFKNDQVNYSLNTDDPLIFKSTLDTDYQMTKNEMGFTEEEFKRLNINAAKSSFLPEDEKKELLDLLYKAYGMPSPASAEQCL
Test: In vitro inhibition of adenosine deaminase isolated from calf intestine.

| Ki [µM] | SMILES |
| --- | --- |
| 0.16 | CCCCCCC(C(C)O)n1cnc2c(N)nccc21 (stereo not given) |
| 0.01 | CCCCCCC(C(C)O)n1cnc2c(N)ccnc21 (stereo not given) |
| > 400 | CCCCCCC(C(C)O)n1nccn1 (stereo not given) |
| 26 | CCCCCCC(C(C)O)n1cnnc1 (stereo not given) |
| > 1000 | CCCCCCC(C(C)O)n1cccn1 (stereo not given) |
| 24 | CCCCCCC(C(C)O)n1ccnn1 (stereo in doubt; 13e) |
| 100 | CCCCCCC(C(C)O)n1ccnn1 (stereo in doubt; 13t) |
| 9.6 | CCCCCCC(C(C)O)n1ncnn1 (stereo in doubt; 25e) |
| > 1000 | CCCCCCC(C(C)O)n1ncnn1 (stereo in doubt; 25t) |

| SMILES | Ki [µM] |
| --- | --- |
| CCCCCCC(C(C)O)n1ccnc1 (stereo in doubt; 6e) | 0.7 |
| CCCCCCC(C(C)O)n1ccnc1 (stereo in doubt; 6t) | 1.8 |
| CCCCCCC(C(C)O)n1cncn1 (stereo in doubt; 18e) | 0.3 |
| CCCCCCC(C(C)O)n1cncn1 (stereo in doubt; 18t) | 1 |
| CCCCCCC(C(C)O)n1cnnn1 (stereo in doubt; 23e) | 0.6 |
| CCCCCCC(C(C)O)n1cnnn1 (stereo in doubt; 23t) | 15 |
